Assay results reported in ChEMBL document CHEMBL1141792, “Swartziarboreol diterpenes from Swartzia langsdorffii Raddi” (J Nat Prod, 2005).
Calls of active or inactive are those of the source. No cut-off for these calls is given here.

System: Staphylococcus aureus
Experiment: Antibacterial activity against Staphylococcus aureus CCT 4295
Format: functional, organism-based

COc1c(O)c2c(c3c1CCOC3=O)CC[C@H]1C(C)(C)CCC[C@]21C
Activity: Active
